In US4312867A, “Antibacterial compounds, processes for their preparation and compositions containing them” (Beecham Group Limited, priority 1979, dated 1982):
Converted amounts (≈) assume the structure as drawn. Where two headings read alike, the source gives them in different places.

Assays:
E. coli NCTC 10418 [1] = assay: MIC human bacteria (Table 1), serial dilution in nutrient agar; assay type: cell-based; details: Escherichia coli, NCTC10418; E. coli NCTC 10418; nutrient agar with 5% chocolated horse blood; read-out: MIC
E. coli ESS = assay: as above; assay type: cell-based; details: Escherichia coli
P. mirabilis 889 = assay: as above; assay type: cell-based; details: Proteus mirabilis
K. aerogenes A = assay: as above; assay type: cell-based; details: Klebsiella aerogenes, nutrient agar with 5% chocolated horse blood
Ps. aeruginosa 10662 = assay: as above; assay type: cell-based; details: Pseudomonas aeruginosa, nutrient agar with 5% chocolated horse blood
[2] = system: Pasteurella multocida 1633; assay: as above; assay type: cell-based
[3] = system: Haemophilus influenzae Q1; assay: as above; assay type: cell-based
[4] = system: Haemophilus influenzae Wy21; assay: as above; assay type: cell-based; details: Haemophilus influenzae Wy21; nutrient agar with 5% chocolated horse blood; read-out: MIC
[5] = system: Neisseria catarrhalis 1502; assay: as above; assay type: cell-based; details: nutrient agar with 5% chocolated horse blood
Bacillus subtilis 6633 = assay: as above; assay type: cell-based; details: nutrient agar with 5% chocolated horse blood
[6] = system: Corynebacterium xerosis 9755; assay: as above; assay type: cell-based; details: nutrient agar with 5% chocolated horse blood
Sarcina lutea 8340 = assay: as above; assay type: cell-based; details: nutrient agar with 5% chocolated horse blood
Staph aureus Oxford [7] = assay: as above; assay type: cell-based; details: Staphylococcus aureus, nutrient agar with 5% chocolated horse blood
Staph aureus Russell = assay: as above; assay type: cell-based; details: Staphylococcus aureus, nutrient agar with 5% chocolated horse blood
Staph aureus W2827 = assay: as above; assay type: cell-based; details: Staphylococcus aureus, nutrient agar with 5% chocolated horse blood
Strep faecalis I = assay: as above; assay type: cell-based; details: nutrient agar with 5% chocolated horse blood
Strep pyogenes A 64/848 = assay: as above; assay type: cell-based; details: nutrient agar with 5% chocolated horse blood
Strep pyogenes B 2788 = assay: as above; assay type: cell-based; details: nutrient agar with 5% chocolated horse blood
Strep pyogenes C 2761 = assay: as above; assay type: cell-based; details: nutrient agar with 5% chocolated horse blood
Strep pneumoniae CN33 = assay: as above; assay type: cell-based; details: nutrient agar with 5% chocolated horse blood
E. coli NCTC 10418 [8] = assay: MIC veterinary bacteria (Table 2), serial dilution in agar; assay type: cell-based; details: Escherichia coli, NCTC10418; E. coli NCTC 10418; diagnostic sensitivity test agar; read-out: MIC
E. coli E1 = assay: as above; assay type: cell-based; details: Escherichia coli, diagnostic sensitivity test agar
S. dublin S7 = assay: as above; assay type: cell-based; details: Salmonella enterica, diagnostic sensitivity test agar
S. typhimurium S18 = assay: as above; assay type: cell-based; details: Salmonella enterica, diagnostic sensitivity test agar
Bord bronchiseptica B08 = assay: as above; assay type: cell-based; details: diagnostic sensitivity test agar
Bord bronchiseptica B09 = assay: as above; assay type: cell-based; details: diagnostic sensitivity test agar
Past multocida PA1 = assay: as above; assay type: cell-based; details: diagnostic sensitivity test agar
Past multocida PA2 = assay: as above; assay type: cell-based; details: diagnostic sensitivity test agar
[9] = system: Erysipelothrix rhusiopathiae NCTC 8163; assay: as above; assay type: cell-based; details: NCTC8163
[10] = system: Corynebacterium pyogenes CY1; assay: as above; assay type: cell-based; details: Trueperella pyogenes, diagnostic sensitivity test agar
[11] = system: Staph aureus B4 (pen. resis); assay: as above; assay type: cell-based; details: Staphylococcus aureus; Staph aureus B4 (pen. resis); diagnostic sensitivity test agar; read-out: MIC
[12] = system: Staph aureus 152 (pen. sens); assay: as above; assay type: cell-based; details: Staphylococcus aureus, diagnostic sensitivity test agar
Staph aureus Oxford [13] = assay: as above; assay type: cell-based; details: Staphylococcus aureus; Staph aureus Oxford; diagnostic sensitivity test agar; read-out: MIC
[14] = system: Strep suis (group D) SPS11; assay: as above; assay type: cell-based; details: diagnostic sensitivity test agar
Strep uberis SPU1 = assay: as above; assay type: cell-based; details: diagnostic sensitivity test agar
Strep dysgalaciae SPD1 = assay: as above; assay type: cell-based; details: diagnostic sensitivity test agar
Strep agalactiae SPA1 = assay: as above; assay type: cell-based; details: diagnostic sensitivity test agar
B. subtilis ATCC 6633 = assay: as above; assay type: cell-based; details: diagnostic sensitivity test agar
M. suipneumoniae JF435 = assay: anti-mycoplasmal MIC, Friis broth solidified with agarose (Table 4); assay type: cell-based; details: Mesomycoplasma hyopneumoniae, 144 h; M. suipneumoniae JF435; 6 days at 37° C.; read-out: MIC
M. suipneumoniae Str. 11 = assay: as above; assay type: cell-based; details: Mesomycoplasma hyopneumoniae, STR.11, 144 h
M. suipneumoniae MS16 = assay: as above; assay type: cell-based; details: Mesomycoplasma hyopneumoniae, MS16, 144 h
[15] = Serum binding by ultrafiltration of porcine serum; assay type: in vitro ADME; details: pig, 8 mcg/ml, microbiological assay, read-out: % bound to pig serum (converted)
Description: Serum binding was assessed by ultrafiltration of porcine serum containing compounds at 8 mcg/ml, and through an Amicon CF50A ultrafiltration cone. Separation of ultrafiltrate was achieved by centrifugation. Unbound concentrations of compound were measured in the ultrafiltrate by microbiological assay (B. subtilis ATCC 6633) against standards prepared in saline.

[16] = E. coli ESS, nutrient agar with 5% chocolated horse blood, read-out: MIC
[17] = P. mirabilis 889, nutrient agar with 5% chocolated horse blood, read-out: MIC
[18] = Pasteurella multocida 1633, nutrient agar with 5% chocolated horse blood, read-out: MIC
[19] = Haemophilus influenzae Q1, nutrient agar with 5% chocolated horse blood, read-out: MIC
[20] = Micrococcus luteus, read-out: MIC
[21] = Erysipelothrix rhusiopathiae NCTC 8163, diagnostic sensitivity test agar, read-out: MIC

## C/C(=C\C(=O)OC(C)CCCCCS(N)(=O)=O)CC1OCC(CC2OC2C(C)C(C)O)C(O)C1O (stereo not shown) [Example 5, 7-Sulphamoylhept-2-yl monate A]
E. coli NCTC 10418 [1]
  MIC: > 100 µg/mL
E. coli ESS; [16]
  MIC: 2.5 µg/mL (≈ 4.79 µM)
P. mirabilis 889; [17]
  MIC: > 100 µg/mL
K. aerogenes A
  MIC: > 100 µg/mL
Ps. aeruginosa 10662
  MIC: > 100 µg/mL
[2]; [18]
  MIC: 2.5 µg/mL (≈ 4.79 µM)
[3]; [19]
  MIC: 0.2 µg/mL (≈ 0.383 µM)
[4]
  MIC: 0.2 µg/mL (≈ 0.383 µM)
[5]
  MIC: 1 µg/mL (≈ 1.92 µM)
Bacillus subtilis 6633
  MIC: 2.5 µg/mL (≈ 4.79 µM)
[6]
  MIC: No Growth
Sarcina lutea 8340
  MIC: No Growth
Staph aureus Oxford [7]
  MIC: 10 µg/mL (≈ 19.2 µM)
Staph aureus Russell
  MIC: 10 µg/mL (≈ 19.2 µM)
Staph aureus W2827
  MIC: 25 µg/mL (≈ 47.9 µM)
Strep faecalis I
  MIC: > 100 µg/mL
Strep pyogenes A 64/848
  MIC: 2.5 µg/mL (≈ 4.79 µM)
Strep pyogenes B 2788
  MIC: 2.5 µg/mL (≈ 4.79 µM)
Strep pyogenes C 2761
  MIC: 2.5 µg/mL (≈ 4.79 µM)
Strep pneumoniae CN33
  MIC: 1 µg/mL (≈ 1.92 µM)
E. coli NCTC 10418 [8]
  MIC: > 80 µg/mL
E. coli E1
  MIC: > 80 µg/mL
S. dublin S7
  MIC: > 80 µg/mL
S. typhimurium S18
  MIC: > 80 µg/mL
Bord bronchiseptica B08
  MIC: 40 µg/mL (≈ 76.7 µM)
Bord bronchiseptica B09
  MIC: 10 µg/mL (≈ 19.2 µM)
Past multocida PA1
  MIC: 0.625 µg/mL (≈ 1.2 µM)
Past multocida PA2
  MIC: 0.312 µg/mL (≈ 0.598 µM)
[9]; Erysipelothrix rhusiopathiae
  MIC: 40 µg/mL (≈ 76.7 µM)
[10]
  MIC: 80 µg/mL (≈ 153 µM)
[11]
  MIC: 5 µg/mL (≈ 9.58 µM)
[12]
  MIC: 1.25 µg/mL (≈ 2.4 µM)
Staph aureus Oxford [13]
  MIC: 1.25 µg/mL (≈ 2.4 µM)
[14]
  MIC: 5 µg/mL (≈ 9.58 µM)
Strep uberis SPU1
  MIC: 0.625 µg/mL (≈ 1.2 µM)
Strep dysgalaciae SPD1
  MIC: 0.625 µg/mL (≈ 1.2 µM)
Strep agalactiae SPA1
  MIC: 1.25 µg/mL (≈ 2.4 µM)
B. subtilis ATCC 6633
  MIC: No Growth
M. suipneumoniae JF435
  MIC: 500 µg/mL (≈ 958 µM)
M. suipneumoniae Str. 11
  MIC: 250 µg/mL (≈ 479 µM)
M. suipneumoniae MS16
  MIC: 250 µg/mL (≈ 479 µM)
[15]
  fraction unbound: 0.354

## C/C(=C\C(=O)OCCCCCCS(N)(=O)=O)CC1OCC(CC2OC2C(C)C(C)O)C(O)C1O (stereo not shown) [Example 2, 6-Sulphamoylhexyl monate A]
E. coli NCTC 10418 [1]
  MIC: > 100 µg/mL
E. coli ESS
  MIC: 0.5 µg/mL (≈ 0.985 µM)
P. mirabilis 889; 889
  MIC: 50 µg/mL (≈ 98.5 µM)
K. aerogenes A
  MIC: > 100 µg/mL
Ps. aeruginosa 10662
  MIC: > 100 µg/mL
[2]; [18]
  MIC: 2.5 µg/mL (≈ 4.92 µM)
[3]; Haemophilus influenzae, Q1
  MIC: 0.1 µg/mL (≈ 0.197 µM)
Bacillus subtilis 6633
  MIC: 0.5 µg/mL (≈ 0.985 µM)
[6]; read-out: MIC
  MIC: > 100 µg/mL
Sarcina lutea 8340; [20]
  MIC: > 100 µg/mL
Staph aureus Oxford [7]
  MIC: 5 µg/mL (≈ 9.85 µM)
Staph aureus Russell
  MIC: 5 µg/mL (≈ 9.85 µM)
Staph aureus W2827
  MIC: 5 µg/mL (≈ 9.85 µM)
Strep faecalis I
  MIC: > 100 µg/mL
Strep pyogenes A 64/848
  MIC: 0.5 µg/mL (≈ 0.985 µM)
Strep pyogenes B 2788
  MIC: 1 µg/mL (≈ 1.97 µM)
Strep pyogenes C 2761
  MIC: 1 µg/mL (≈ 1.97 µM)
Strep pneumoniae CN33
  MIC: 0.2 µg/mL (≈ 0.394 µM)
E. coli NCTC 10418 [8]
  MIC: > 80 µg/mL
E. coli E1
  MIC: > 80 µg/mL
S. dublin S7
  MIC: > 80 µg/mL
S. typhimurium S18
  MIC: > 80 µg/mL
Bord bronchiseptica B08
  MIC: 20 µg/mL (≈ 39.4 µM)
Bord bronchiseptica B09
  MIC: 10 µg/mL (≈ 19.7 µM)
Past multocida PA1
  MIC: 0.312 µg/mL (≈ 0.615 µM)
Past multocida PA2
  MIC: 0.039 µg/mL (≈ 0.0768 µM)
[9]; [21]
  MIC: 20 µg/mL (≈ 39.4 µM)
[10]
  MIC: 10 µg/mL (≈ 19.7 µM)
[11]
  MIC: 2.5 µg/mL (≈ 4.92 µM)
[12]
  MIC: 1.25 µg/mL (≈ 2.46 µM)
Staph aureus Oxford [13]
  MIC: 2.5 µg/mL (≈ 4.92 µM)
[14]
  MIC: 2.5 µg/mL (≈ 4.92 µM)
Strep uberis SPU1
  MIC: 0.625 µg/mL (≈ 1.23 µM)
Strep dysgalaciae SPD1
  MIC: 0.625 µg/mL (≈ 1.23 µM)
Strep agalactiae SPA1
  MIC: 1.25 µg/mL (≈ 2.46 µM)
[15]
  fraction unbound: 0.287

## C/C(=C\C(=O)OCCCCCCCCS(N)(=O)=O)CC1OCC(CC2OC2C(C)C(C)O)C(O)C1O (stereo not shown) [Example 3, 8-Sulphamoyloctyl monate A]
E. coli NCTC 10418 [1]
  MIC: > 100 µg/mL
E. coli ESS; [16]
  MIC: 0.5 µg/mL (≈ 0.933 µM)
P. mirabilis 889; [17]
  MIC: > 100 µg/mL
K. aerogenes A
  MIC: > 100 µg/mL
Ps. aeruginosa 10662
  MIC: > 100 µg/mL
[2]; Pasteurella multocida, 1633
  MIC: 1 µg/mL (≈ 1.87 µM)
[3]; [19]
  MIC: 0.2 µg/mL (≈ 0.373 µM)
[4]
  MIC: 0.2 µg/mL (≈ 0.373 µM)
[5]
  MIC: 1 µg/mL (≈ 1.87 µM)
Bacillus subtilis 6633
  MIC: 0.2 µg/mL (≈ 0.373 µM)
[6]; read-out: MIC
  MIC: > 100 µg/mL
Sarcina lutea 8340; [20]
  MIC: > 100 µg/mL
Staph aureus Oxford [7]
  MIC: 1 µg/mL (≈ 1.87 µM)
Staph aureus Russell
  MIC: 1 µg/mL (≈ 1.87 µM)
Staph aureus W2827
  MIC: 1 µg/mL (≈ 1.87 µM)
Strep faecalis I
  MIC: > 100 µg/mL
Strep pyogenes A 64/848
  MIC: 0.5 µg/mL (≈ 0.933 µM)
Strep pyogenes B 2788
  MIC: 1 µg/mL (≈ 1.87 µM)
Strep pyogenes C 2761
  MIC: 1 µg/mL (≈ 1.87 µM)
Strep pneumoniae CN33
  MIC: 0.5 µg/mL (≈ 0.933 µM)
E. coli NCTC 10418 [8]
  MIC: > 80 µg/mL
E. coli E1
  MIC: > 80 µg/mL
S. dublin S7
  MIC: > 80 µg/mL
S. typhimurium S18
  MIC: > 80 µg/mL
Bord bronchiseptica B08
  MIC: 80 µg/mL (≈ 149 µM)
Bord bronchiseptica B09
  MIC: 40 µg/mL (≈ 74.7 µM)
Past multocida PA1
  MIC: 1.25 µg/mL (≈ 2.33 µM)
Past multocida PA2
  MIC: 0.156 µg/mL (≈ 0.291 µM)
[9]; [21]
  MIC: 10 µg/mL (≈ 18.7 µM)
[11]
  MIC: 0.625 µg/mL (≈ 1.17 µM)
[12]
  MIC: 0.625 µg/mL (≈ 1.17 µM)
Staph aureus Oxford [13]
  MIC: 0.625 µg/mL (≈ 1.17 µM)
[14]
  MIC: 20 µg/mL (≈ 37.3 µM)
Strep uberis SPU1
  MIC: 1.25 µg/mL (≈ 2.33 µM)
Strep dysgalaciae SPD1
  MIC: 2.5 µg/mL (≈ 4.67 µM)
Strep agalactiae SPA1
  MIC: 2.5 µg/mL (≈ 4.67 µM)
[15]
  fraction unbound: 0.035
